Data on 13 molecules can be found in ChEMBL document CHEMBL1201862, “PubChem BioAssay data set” (2004).

Test systems include 786-0; A549; ACHN; HCC 2998; HCT-15; K562; NCI-H23; NCI-H460; OVCAR-3; OVCAR-5; RPMI-8226; RXF 393; SF-539; SNB-75; TK-10; UACC-257; UACC-62; A498.
Common to all, as to assay: NCI-60 cell line screen, 48 h

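The compound was tested at five concentrations on cells cultured in 96-well plates, with a 48-hour exposure period. At the GI50, growth is halved.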 The source made the active and inactive calls. Rule as the data show it: active = GI50 up to about 1.1 µM and inactive = higher.

Take `CCOC(=O)N1Cc2ccoc2C1`: the GI50 was > 100 µM (inactive) in the test on 786-0; 43.7 µM (inactive) with A549; > 100 µM (inactive) with ACHN; > 100 µM (inactive) in the test with HCC 2998; more than 100 µM with HCT-15; > 100 µM (inactive) with K562. The GI50 in the test on NCI-H23, in the test on NCI-H460, in the test with OVCAR-3, in the test with OVCAR-5, in the test with RPMI-8226 and in the test on RXF 393 was > 100 µM (inactive) throughout. The GI50 in the test with SF-539, in the test with SNB-75, in the test on TK-10, in the test on UACC-257 and in the test with UACC-62 was > 100 µM (inactive) in each case.
In the case of `O=C(CCC(=O)N/N=C/c1ccccc1O)N/N=C/c1ccccc1O`, the GI50 with 786-0 was > 100 µM (inactive); in the test on A549 it was > 100 µM (inactive); with HCC 2998, > 100 µM (inactive); in the test with HCT-15 it was 51.4 µM; in the test on K562, > 100 µM (inactive); with NCI-H23, 94.6 µM (inactive). In addition, the GI50 is 42.1 µM (inactive) in the test on OVCAR-3; > 100 µM (inactive) with OVCAR-5; > 100 µM (inactive) with RPMI-8226; 16 µM (inactive) in the test with RXF 393; > 10 µM (inactive) in the test with SF-539; 12.9 µM (inactive) with SNB-75. Besides, the GI50 in the test on TK-10 was 29.4 µM (inactive); in the test with UACC-257, > 100 µM (inactive); in the test on UACC-62, 41.8 µM (inactive).
`COC1OC(COCc2ccc(Cl)cc2)C(OCc2ccc(Cl)cc2)C1N=[N+]=[N-]` (stereo not drawn): the GI50 with 786-0 was 4.7 µM (inactive); with A549, 4.32 µM (inactive); in the test with ACHN, > 100 µM (inactive); in the test with HCC 2998, > 100 µM (inactive); in the test on HCT-15 it was more than 100 µM; with K562, 49.8 µM (inactive). For the same molecule, the GI50 with NCI-H23 is 45.1 µM (inactive); in the test with NCI-H460 it was > 100 µM (inactive); with OVCAR-3, 47.8 µM (inactive); with OVCAR-5, > 100 µM (inactive); in the test on RPMI-8226 it was 19.4 µM (inactive); in the test with RXF 393 it was 27.1 µM (inactive). The GI50 in the test on SNB-75 was 73.5 µM (inactive); with TK-10, > 100 µM (inactive); with UACC-257 it was 81.7 µM (inactive); in the test on UACC-62 it was 15.3 µM (inactive).
For `CC1CN1c1c(C(=O)/C=C/c2ccc(Cl)cc2)c(-c2ccccc2)nn(C)c1=O` (stereo not drawn), the GI50 in the test with 786-0 was 2.81 µM (inactive); in the test with A498, 4.08 µM (inactive); with A549, 4.42 µM (inactive); in the test on ACHN, 2.33 µM (inactive); in the test on HCC 2998 it was 1.99 µM (inactive); in the test on HCT-15, 1.82 µM. Besides, the GI50 in the test with K562 was 2.82 µM (inactive); in the test with NCI-H23 it was 2.77 µM (inactive); in the test on NCI-H460 it was 2.28 µM (inactive); in the test on OVCAR-3, 2.6 µM (inactive); with OVCAR-5 it was 5.47 µM (inactive); in the test on RXF 393, 3.01 µM (inactive). Also, the GI50 was 1.94 µM (inactive) with SF-539; 2.65 µM (inactive) in the test on SNB-75; 2.92 µM (inactive) in the test with TK-10; 3.67 µM (inactive) in the test with UACC-257; 2.32 µM (inactive) with UACC-62.
Regarding `CCOC(=O)c1cn(CC)c2cc3c(cc2c1=O)SCS3`, the GI50 in the test on 786-0 is > 100 µM (inactive); in the test with A549, > 100 µM (inactive); in the test on ACHN, > 100 µM (inactive); in the test with HCC 2998 it was > 100 µM (inactive); in the test on HCT-15, more than 100 µM; in the test with K562, > 100 µM (inactive). Moreover, the GI50 with NCI-H23, in the test on NCI-H460, in the test on OVCAR-3, in the test with OVCAR-5, in the test on RPMI-8226 and with RXF 393 was > 100 µM (inactive) throughout. Besides, the GI50 was > 100 µM (inactive) in the test with SF-539; 52.2 µM (inactive) in the test on SNB-75; > 100 µM (inactive) with TK-10; > 100 µM (inactive) in the test with UACC-257; > 100 µM (inactive) in the test with UACC-62.
Turning to `O=C(COc1ccccc1Cl)N1N=C(c2ccccc2)CC1(O)c1ccccc1` (stereo not drawn), the GI50 is 17.3 µM (inactive) with 786-0; 16.9 µM (inactive) with A549; 17.1 µM (inactive) in the test with ACHN; 15.9 µM (inactive) in the test on HCC 2998; 12.9 µM with HCT-15; 14.3 µM (inactive) in the test with K562. Also, the GI50 in the test with NCI-H23 is 12.1 µM (inactive); with NCI-H460 it was 18 µM (inactive); in the test with OVCAR-3, 15.9 µM (inactive); with OVCAR-5, 19.4 µM (inactive); in the test on RPMI-8226, 8.17 µM (inactive); in the test with SF-539, 18.9 µM (inactive). Also, the GI50 with SNB-75 is 47.6 µM (inactive); in the test with TK-10, 17.1 µM (inactive); in the test on UACC-257, 20.7 µM (inactive); with UACC-62 it was 12.8 µM (inactive).
For `Nc1ccc(C2=N/C(=C\c3cccc(N)c3)C(=O)O2)cc1`, the GI50 was > 100 µM (inactive) in the test on 786-0; > 100 µM (inactive) in the test on A549; > 100 µM (inactive) in the test on ACHN; > 100 µM (inactive) in the test on HCC 2998; more than 100 µM in the test on HCT-15; > 100 µM (inactive) in the test with K562. The GI50 in the test with NCI-H23, in the test with OVCAR-3, in the test on OVCAR-5, with RXF 393, in the test on SF-539 and in the test with TK-10 was > 100 µM (inactive) each time. The GI50 with UACC-62 is > 100 µM (inactive).
As to `CCOC(=O)C1(Cc2ccc3ccccc3c2)CCCCCN1` (stereo not drawn), the GI50 was 17.3 µM (inactive) in the test on 786-0; 52.4 µM (inactive) with A549; 58.2 µM (inactive) with ACHN; 19.1 µM (inactive) in the test on HCC 2998; 18.7 µM in the test with HCT-15; 22.8 µM (inactive) in the test with K562. For the same molecule, the GI50 in the test with NCI-H23 is 30 µM (inactive); with NCI-H460, 18.4 µM (inactive); in the test on OVCAR-3, 45.3 µM (inactive); with RPMI-8226, 5.6 µM (inactive); in the test on RXF 393, 20.4 µM (inactive); in the test with SNB-75, 2.78 µM (inactive). For the same molecule, the GI50 was 54.1 µM (inactive) in the test with TK-10 and 46.3 µM (inactive) in the test on UACC-62.
For `CC(C)(CCl)NC(=O)c1cccc(C(=O)NC(C)(C)CCl)n1`, the GI50 was > 100 µM (inactive) with 786-0; > 100 µM (inactive) in the test on A498; > 100 µM (inactive) in the test with A549; > 100 µM (inactive) in the test on ACHN; > 100 µM (inactive) in the test with HCC 2998; more than 100 µM with HCT-15. Moreover, the GI50 in the test with K562, with NCI-H23, with NCI-H460, in the test with OVCAR-3, in the test on OVCAR-5 and in the test with RPMI-8226 was > 100 µM (inactive) in each case. Further, the GI50 with RXF 393 was > 100 µM (inactive); in the test on SF-539, > 100 µM (inactive); in the test on SNB-75, 92.3 µM (inactive); in the test on TK-10 it was > 100 µM (inactive).
With `CCCCCCCCCCCCCCCCc1c(O)nc(NC#N)nc1C(=O)OC`, the GI50 in the test with 786-0 is > 25 µM (inactive); in the test with A498, > 25 µM (inactive); with A549, > 25 µM (inactive); in the test on ACHN it was > 25 µM (inactive); in the test on HCC 2998, > 25 µM (inactive); in the test on HCT-15, more than 25 µM. Further, the GI50 with K562, in the test with NCI-H23, in the test on NCI-H460, in the test with OVCAR-3, with OVCAR-5 and in the test with RPMI-8226 was > 25 µM (inactive) in each case. Moreover, the GI50 in the test with RXF 393, in the test with SF-539, in the test with SNB-75, in the test with TK-10 and in the test on UACC-257 was > 25 µM (inactive) each time.
With `C=CCCn1nc(-c2ccccc2)oc1=O`, the GI50 is > 100 µM (inactive) in the test on 786-0; > 100 µM (inactive) in the test on A498; > 100 µM (inactive) in the test on A549; > 100 µM (inactive) in the test with ACHN; > 100 µM (inactive) with HCC 2998; more than 100 µM in the test on HCT-15. In addition, the GI50 with K562, in the test on NCI-H23, with NCI-H460, with OVCAR-3, with OVCAR-5 and with RXF 393 was > 100 µM (inactive) in each case. For the same molecule, the GI50 with SF-539, with SNB-75, with TK-10, in the test on UACC-257 and in the test with UACC-62 was > 100 µM (inactive) in each case.
Turning to `CN/N=C(/Cc1occc(=O)c1O)C(=O)Nc1ccccc1C`, the GI50 in the test with 786-0 is > 100 µM (inactive); in the test with A498 it was > 100 µM (inactive); in the test with A549 it was > 100 µM (inactive); in the test with ACHN, > 100 µM (inactive); in the test on HCC 2998, > 100 µM (inactive); with HCT-15, more than 100 µM. The GI50 in the test with K562, in the test with NCI-H23, in the test with NCI-H460, in the test with OVCAR-3, with OVCAR-5 and in the test with RPMI-8226 was > 100 µM (inactive) throughout. The GI50 in the test with SF-539, in the test with TK-10, in the test on UACC-257 and in the test on UACC-62 was > 100 µM (inactive) each time.
Consider `CN(C)CCNC(=O)c1cccc2cc3c(Cl)cccc3nc12`, for which the GI50 was 1.12 µM (active) in the test on 786-0; 1.35 µM (inactive) with A498; 0.556 µM (active) in the test with A549; 0.413 µM (active) with ACHN; 1.27 µM (inactive) with HCC 2998; 1.19 µM with HCT-15. In addition, the GI50 with K562 was 0.946 µM (active); with NCI-H23, 1.38 µM (inactive); with OVCAR-3, 1.82 µM (inactive); in the test with OVCAR-5, 2.61 µM (inactive); in the test with RPMI-8226 it was 1.64 µM (inactive); with RXF 393, 1.7 µM (inactive). The GI50 with SF-539 is 0.873 µM (active); with SNB-75 it was 1.97 µM (inactive); with TK-10, 1.95 µM (inactive); in the test with UACC-257, 1.75 µM (inactive); with UACC-62, 1.69 µM (inactive).
